In US20250171459A1, “2-METHYL-4',5'-DIHYDROSPIRO[PIPERIDINE-4,7'-THIENO[2,3-C]PYRAN] DERIVATIVES AS INHIBITORS OF APOL1 AND METHODS OF USING SAME” (Vertex Pharmaceuticals Incorporated, priority 2022, published 2025):

Molecular target: T1, APOL1 (Homo sapiens, UniProt O14791)
T1 sequence (O14791 1-398 S342G/I384M): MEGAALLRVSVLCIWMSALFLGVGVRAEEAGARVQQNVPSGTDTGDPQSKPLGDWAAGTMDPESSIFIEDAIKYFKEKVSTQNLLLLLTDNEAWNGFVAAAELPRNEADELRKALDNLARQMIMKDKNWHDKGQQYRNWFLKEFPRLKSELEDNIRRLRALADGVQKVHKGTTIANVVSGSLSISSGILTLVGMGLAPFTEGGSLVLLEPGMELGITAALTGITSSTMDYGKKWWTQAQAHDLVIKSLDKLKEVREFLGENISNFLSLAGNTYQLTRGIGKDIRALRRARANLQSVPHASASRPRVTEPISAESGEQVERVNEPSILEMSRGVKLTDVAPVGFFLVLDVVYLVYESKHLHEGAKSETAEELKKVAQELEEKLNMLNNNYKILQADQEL
Assay: MultiTox-Fluor Multiplex Cytotoxicity Assay in tet-inducible APOL1 T-REx-HEK293 cells (cell rescue, ratio of dead to live cells)
Format: cell-based
Conditions: tet-inducible transgenic APOL1 T-REx-HEK293 cell lines, 50 ng/mL tet, 24 hours; read-out: IP50 (i.e., IC50 for cell proliferation)
Procedure, shortened: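 T-REx-HEK293 cells with tet-inducible APOL1 were treated with compound (10 μM top, 10-point 3-fold dilution, duplicate) plus 50 ng/mL tetracycline for 24 h at 37° C, in DMEM with 2% tet-free FBS. MultiTox-Fluor protease signals gave a dead/live ratio, normalized to no tet (100% viability) and tet alone (0%).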

Compound	IC50
CCc1cc2c(s1)CCOC21CCN(Cc2cnc(N)s2)CC1 [Compound 1134]	100 to 500 nM
CCc1cc2c(s1)CCOC21CCN(Cc2cnn(C(C)=O)c2)CC1 [Compound 1135]	100 to 500 nM
CCc1cc2c(s1)CCOC21CCN(Cc2cnc(-c3cccnc3)s2)CC1 [Compound 1136]	100 to 500 nM
CCc1cc2c(s1)CCOC21CCN(Cc2cnc(N3CCCCC3)s2)CC1 [Compound 1137]	100 to 500 nM
CCc1cc2c(s1)CCOC21CCN(Cc2cnn(C)c2)CC1 [Compound 1138]	100 to 500 nM
CCc1cc2c(s1)CCOC21CCN(Cc2csc(-c3cccnc3)n2)CC1 [Compound 1139]	500 to 1000 nM
CCc1cc2c(s1)CCOC21CCN(Cc2cnc(-c3ccccn3)s2)CC1 [Compound 1140]	500 to 1000 nM
CCc1cc2c(s1)CCOC21CCN(Cc2c[nH]cn2)CC1 [Compound 1141]	500 to 1000 nM
CCc1cc2c(s1)CCOC21CCN(Cc2cncs2)CC1 [Compound 1142]	500 to 1000 nM
CCc1cc2c(s1)CCOC21CCN(Cc2cnc(C(C)O)s2)CC1 (stereo not shown) [Compound 1143]	500 to 1000 nM
CCc1cc2c(s1)CCOC21CCN(Cc2cnc(C(F)(F)F)[nH]2)CC1 [Compound 1144]	500 to 1000 nM
CCc1cc2c(s1)CCOC21CCN(Cc2nc(-c3ccccc3)[nH]c2Cl)CC1 [Compound 1145]	500 to 1000 nM
CCc1cc2c(s1)CCOC21CCN(Cc2csc(N3CCOCC3)n2)CC1 [Compound 1146]	500 to 1000 nM
CCc1cc2c(s1)CCOC21CCN(Cc2csc(C(F)(F)F)n2)CC1 [Compound 1147]	500 to 1000 nM
CCc1cc2c(s1)CCOC21CCN(Cc2ccc(S(C)(=O)=O)cc2)CC1 [Compound 1148]	500 to 1000 nM
CCc1cc2c(s1)CCOC21CCN(CC2CN(C(=O)OC(C)(C)C)C2)CC1 [Compound 1149]	500 to 1000 nM
CCc1cc2c(s1)CCOC21CCN(CC2CCN(C(=O)OC(C)(C)C)CC2)CC1 [Compound 1150]	500 to 1000 nM
CCc1cc2c(s1)CCOC21CCN(CC2CCN(S(C)(=O)=O)CC2)CC1 [Compound 1151]	500 to 1000 nM
CCc1cc2c(s1)CCOC21CCN(Cc2cc(O)ccn2)CC1 [Compound 1152]	500 to 1000 nM
CCc1cc2c(s1)CCOC21CCN(Cc2ccncc2)CC1 [Compound 1153]	500 to 1000 nM

Compound	IC50
CCc1cc2c(s1)CCOC21CCN(Cc2ccc(S(C)(=O)=O)cc2F)CC1 [Compound 1154]	500 to 1000 nM
CCc1cc2c(s1)CCOC21CCN(CC2CC2)CC1 [Compound 1155]	500 to 1000 nM
CCc1cc2c(s1)CCOC21CCN(Cc2cncnc2)CC1 [Compound 1156]	500 to 1000 nM
CCc1cc2c(s1)CCOC21CCN(Cc2ccc(OC)nc2)CC1 [Compound 1157]	100 to 500 nM
CCc1cc2c(s1)CCOC21CCN(Cc2cn(C)nn2)CC1 [Compound 1158]	500 to 1000 nM
CCc1cc2c(s1)CCOC21CCN(Cc2ccc(NS(=O)(=O)CCCO)cc2)CC1 [Compound 1159, N-(4-((2′-ethyl-6′,7′-dihydrospiro[piperidine-4,4′-thieno[3,2-c]pyran]-1-yl)methyl)phenyl)-3-hydroxypropane-1-sulfonamide]	< 100 nM
CCc1cc2c(s1)CCOC21CCN(Cc2ccc(NCc3cc[nH]c(=O)c3)cc2)CC1 [Compound 1162]	100 to 500 nM
CCc1cc2c(s1)CCOC21CCN(Cc2ccc(NS(=O)(=O)C3CC3)cc2)CC1 [Compound 1163]	100 to 500 nM
Clc1cc2c(s1)CCOC21CCN(Cc2cn[nH]c2)CC1 [Compound 1165, 2-chloro-1′-(1H-pyrazol-4-ylmethyl)spiro[6,7-dihydrothieno[3,2-c]pyran-4,4′-piperidine]]	100 to 500 nM
CC(=O)n1cc(CN2CCC3(CC2)OCCc2sc(Cl)cc23)cn1 [Compound 1166]	100 to 500 nM
Cn1cc(CN2CCC3(CC2)OCCc2sc(C(F)(F)F)cc23)cn1 [Compound 1167]	100 to 500 nM
Cn1cc(CN2CCC3(CC2)OCCc2sc(Cl)cc23)cn1 [Compound 1168]	500 to 1000 nM
CS(=O)(=O)CCn1cc(CN2CCC3(CC2)OCCc2cc(Cl)sc23)cn1 [Compound 1169, 2′-chloro-1-((1-(2-(methylsulfonyl)ethyl)-1H-pyrazol-4-yl)methyl)-4′,5′-dihydrospiro[piperidine-4,7′-thieno[2,3-c]pyran]]	100 to 500 nM
CCc1cc2c(s1)C[C@@H](C)OC21CCN(Cc2cnn(C)c2)CC1 [Compound 1176]	500 to 1000 nM
CNS(=O)(=O)CCn1cc(CN2CCC3(CC2)OCC(C)(C)c2sc(Cl)cc23)cn1 [Compound 1177, 2-[4-[(2-chloro-7,7-dimethyl-spiro[6H-thieno[3,2-c]pyran-4,4′-piperidine]-1′-yl)methyl]pyrazol-1-yl]-N-methyl-ethanesulfonamide]	< 100 nM
Cn1cc(CN2CCC3(CC2)OCC(C)(C)c2sc(Cl)cc23)cn1 [Compound 1178, 2-chloro-7,7-dimethyl-1′-[(1-methylpyrazol-4-yl)methyl]spiro[6H-thieno[3,2-c]pyran-4,4′-piperidine]]	< 100 nM
Cn1cc(CN2CCC3(CC2)OCC2(CC2)c2sc(Cl)cc23)cn1 [Compound 1179, 2′-chloro-1″-[(1-methyl-1H-pyrazol-4-yl)methyl]-6′H-dispiro[cyclopropane-1,7′-thieno[3,2-c]pyran-4′,4″-piperidine]]	< 100 nM
CS(=O)(=O)CCn1cc(CN2CCC3(CC2)OCC(O)c2cc(Cl)sc23)cn1 (stereo not shown) [Compound 1181, 2-chloro-1′-[[1-(2-methylsulfonylethyl)pyrazol-4-yl]methyl]spiro[4,5-dihydrothieno[2,3-c]pyran-7,4′-piperidine]-4-ol]	500 to 1000 nM
CCc1cc2c(s1)C(CC)COC21CCN(Cc2cn(CCS(C)(=O)=O)nn2)CC1 (stereo not shown) [Compound 1182, 2,7-diethyl-1′-[[1-(2-methylsulfonylethyl)triazol-4-yl]methyl]spiro[6,7-dihydrothieno[3,2-c]pyran-4,4′-piperidine]]	500 to 1000 nM
CCc1cc2c(s1)CCOC21CCN(Cc2cn(C3CS(=O)(=O)C3)nn2)CC1 [Compound 1183]	500 to 1000 nM
